Experimental data: patent US9445601B2, “Fungicide active substance combinations” (Bayer Intellectual Property GmbH, priority 1997, dated 2016)
Read-outs that look alike come from different tables or passages of the source.

Legend:
Format in all cases: in vivo
[1] = system: Erysiphe graminis f. sp. hordei; experiment: Erysiphe test (barley)/curative; details: curative, single active compound, application rate 25 g/ha, evaluation 7 days after inoculation
Description: Erysiphe Test (Barley)/Curative
(§1) • Solvent: 10 parts by weight of N-methyl-pyrrolidone • Emulsifier: 0.6 parts by weight of alkylaryl polyglycol ether
(§2) To produce a suitable preparation of active compound, 1 part by weight of active compound or active compound combination is mixed with the stated amounts of solvent and emulsifier, and the concentrate is diluted with water to the desired concentration, or a commercial formulation of active compound or active compound combination is diluted with water to the desired concentration.
To test for curative activity, young plants are dusted with spores of Erysiphe graminis f. sp. hordei. 48 hours after the inoculation, the plants are sprayed with the active compound preparation at the stated application rate.
(§3) The plants are placed in a greenhouse at a temperature of about 20° C. and a relative atmospheric humidity of about 80% to promote the development of mildew pustules.
(§4) Evaluation is carried out 7 days after the inoculation. 0% means an efficacy which corresponds to that of the control, whereas an efficacy of 100% means that no infection is observed.

Fusarium nivale = Fusarium nivale test (triticale)/seed treatment; details: dry seed dressing, single active compound, about 3 weeks after sowing
Description: Fusarium nivale Test (Triticale)/Seed Treatment
(§5) The active compounds are applied as a dry seed dressing. This is prepared by extending the respective active compound or the active compound combination with ground minerals to give a finely pulverulent mixture which ensures uniform distribution on the seed surface.
(§6) To dress the seed, the infected seed together with the seed dressing is shaken for 3 minutes in a sealed glass flask.
2×100 corns of wheat are sown at a depth of 1 cm in standard soil and cultivated in a greenhouse at a temperature of about 10° C. and a relative atmospheric humidity of about 95% in seed trays which receive a light regimen of 15 hours per day.
(§7) About 3 weeks after sowing, the plants are evaluated for symptoms. 0% means an efficacy which corresponds to that of the control, whereas an efficacy of 100% means that no infection is observed.

Fusarium culmorum = Fusarium culmorum test (wheat)/seed treatment; details: dry seed dressing, single active compound, application rate 75 g/ha as printed, about 3 weeks after sowing
Description: Fusarium culmorum Test (Wheat)/Seed Treatment
as §5, §6
2×100 corns of wheat are sown at a depth of 1 cm in standard soil and cultivated in a greenhouse at a temperature of about 18° C. and a relative atmospheric humidity of about 95% in seed trays which receive a light regimen of 15 hours per day.
as §7

Rhizoctonia solani = Rhizoctonia solani test (cotton)/seed treatment; details: dry seed dressing, single active compound, application rate 25 g/ha, evaluation after 8 days
Description: Rhizoctonia solani Test (Cotton)/Seed Treatment
as §5, §6
2×50 corns of seed are sown at a depth of 2 cm in standard soil infected with Rhizoctonia solani, and the seeds are cultivated in a greenhouse at a temperature of about 22° C. in seed trays which receive a light regimen of 15 hours per day.
Evaluation is carried out after 8 days. 0% means an efficacy which corresponds to that of the control, whereas an efficacy of 100% means that no infection is observed.

[2] = system: Erysiphe graminis f. sp. tritici; experiment: Erysiphe test (wheat)/curative; details: curative, single active compound, 7 days after inoculation
Description: Erysiphe Test (Wheat)/Curative
as §1, §2
To test for curative activity, young plants are dusted with spores of Erysiphe graminis f. sp. tritici. 48 hours after the inoculation, the plants are sprayed with the active compound preparation at the stated application rate.
(§8) The plants are then placed in a greenhouse at a temperature of about 20° C. and a relative atmospheric humidity of about 80% to promote the development of mildew pustules.
as §4

Venturia inaequalis = experiment: Venturia test (apple)/protective; details: protective, single active compound, application rate 1 g/ha, evaluation 12 days after inoculation
Description: Venturia Test (Apple)/Protective
(§9) • Solvent: 47 parts by weight of acetone • Emulsifier: 3 parts by weight of alkylaryl polyglycol ether
as §2
To test for protective activity, young plants are sprayed with the active compound preparation at the stated application rate. After the spray coating has dried on, the plants are inoculated with an aqueous konidia suspension of the causative organism of apple scab Venturia inaequalis and then remain in an incubation cabin at about 20° C. and 100% relative atmospheric humidity for one day.
The plants are then placed in a greenhouse at about 21° C. and a relative atmospheric humidity of about 90%.
Evaluation is carried out 12 days after the inoculation. 0% means an efficacy which corresponds to that of the control, whereas an efficacy of 100% means that no infection is observed.

[3] = system: Erysiphe graminis f. sp. tritici; experiment: Erysiphe test (wheat)/protective; details: protective, single active compound, application rate 6.25 g/ha, 7 days after inoculation
Description: Erysiphe Test (Wheat)/Protective
as §1, §2
(§10) To test for protective activity, young plants are sprayed with the active compound preparation at the stated application rate.
After the spray coating has dried on, the plants are dusted with spores of Erysiphe graminis f. sp. tritici.
as §8, §4

Puccinia recondita = experiment: Puccinia test (wheat)/protective; details: protective, single active compound, application rate 25 g/ha, 10 days after inoculation
Description: Puccinia Test (Wheat)/Protective
as §1, §2
To test for protective activity, young plants are inoculated with a spore suspension of Puccinia recondita in a 0.1% strength aqueous agar solution. After the spray coating had dried on, the plants are sprayed with the active compound preparation at the stated application rate.
The plants remain in an incubation cabin at 20° C. and 100% relative atmospheric humidity for 24 hours.
The plants are then placed in a greenhouse at a temperature of about 20° C. and a relative atmospheric humidity of about 80% to promote the development of rust pustules.
(§11) Evaluation is carried out 10 days after the inoculation. 0% means an efficacy which corresponds to that of the control, whereas an efficacy of 100% means that no infection is observed.

[4] = system: Erysiphe graminis f. sp. hordei; experiment: Erysiphe test (barley)/protective; details: protective per Example 4 (table title prints curative), single active compound, application rate 25 g/ha, 7 days after inoculation
Description: Erysiphe Test (Barley)/Protective
as §1, §2, §10
After the spray coating has dried on, the plants are dusted with spores of Erysiphe graminis f. sp. hordei.
as §3, §4

Leptosphaeria nodorum = Leptosphaeria nodorum test (wheat)/protective; details: protective, single active compound, application rate 25 g/ha, 10 days after inoculation
Description: Leptosphaeria nodorum Test (Wheat)/Protective
as §1, §2, §10
After the spray coating has dried on, the plants are sprayed with a spore suspension of Leptosphaeria nodorum. The plants remain in an incubation cabin at 20° C. and 100% relative atmospheric humidity for 48 hours.
The plants are then placed in a greenhouse at a temperature of about 15° C. and a relative atmospheric humidity of about 80%.
as §11

Sphaerotheca fuliginea = experiment: Sphaerotheca test (cucumber)/protective; details: for pest or weed control at 2.5 g/ha: application rate 2.5 g/ha
Description: Sphaerotheca Test (Cucumber)/Protective
as §9
After the spray coating has dried on, the plants are inoculated with an aqueous spore suspension of Sphaerotheca fuliginea. The plants are then placed in a greenhouse at about 23° C. and a relative atmospheric humidity of about 70%.
Evaluation is carried out 10 days after the inoculation.

[5] = application rate 75 g/ha as printed
[6] = Podosphaera fuliginea, 240 h, cucumber, protective, single active compound, evaluation 10 days after inoculation, read-out: Efficacy in %
[7] = Podosphaera fuliginea, 240 h, cucumber, protective, single active compound, application rate 25 g/ha, evaluation 10 days after inoculation, read-out: Efficacy in %
[8] = Podosphaera fuliginea, 240 h, cucumber, protective, single active compound, application rate 12.5 g/ha, evaluation 10 days after inoculation, read-out: Efficacy in %

## OC(Cc1ccccc1Cl)(Cn1nc[nH]c1=S)C1(Cl)CC1 (centres unmarked) [(I), 2-[2-(1-chlorocyclopropyl)-3-(2-chlorophenyl)-2-hydroxypropyl]-2,4-dihydro-[1,2,4]-triazole-3-thione]
[1]
  Efficacy in %: 81%
Fusarium nivale; application rate 25 g/ha
  Efficacy in %: 0%
Fusarium nivale; [5]
  Efficacy in %: 14%
Fusarium culmorum
  Efficacy in %: 32%
Rhizoctonia solani
  Efficacy in %: 19%
[2]; application rate 6.25 g/ha
  Efficacy in %: 25%
[2]; application rate 12.5 g/ha
  Efficacy in %: 50%
[2]; application rate 25 g/ha
  Efficacy in %: 75%
Venturia inaequalis
  Efficacy in %: 1%
[3]
  Efficacy in %: 57%
Puccinia recondita
  Efficacy in %: 38%
[4]
  Efficacy in %: 83%
Leptosphaeria nodorum
  Efficacy in %: 62%
Sphaerotheca fuliginea; Podosphaera fuliginea, 240 h, cucumber, protective, single active compound, application rate 0.5 g/ha, evaluation 10 days after inoculation, read-out: Efficacy in %
  pest or weed control at 0.5 g/ha: 0%
Sphaerotheca fuliginea; [6]
  pest or weed control at 2.5 g/ha: 21%

## CC(C)(C)C(O)(CCc1ccc(Cl)cc1)Cn1cncn1 (centres unmarked) [(III)]
Rhizoctonia solani
  Efficacy in %: 27%
[2]; application rate 25 g/ha
  Efficacy in %: 88%
[3]
  Efficacy in %: 57%
Sphaerotheca fuliginea; [6]
  pest or weed control at 2.5 g/ha: 50%

## CC(C)(C)C(=O)C(Oc1ccc(Cl)cc1)n1cncn1 (centres unmarked) [(IIa), 1-(4-chloro-phenoxy)-3,3-dimethyl-1-(1,2,4-triazol-1-yl)-butane-2-one]
Sphaerotheca fuliginea; [6]
  pest or weed control at 2.5 g/ha: 37%

## CC(C)(C)C(O)C(Oc1ccc(Cl)cc1)n1cncn1 (centres unmarked) [(IIb), 1-(4-chloro-phenoxy)-3,3-dimethyl-1-(1,2,4-triazol-1-yl)-butan-2-ol]
[2]; application rate 25 g/ha
  Efficacy in %: 81%
Sphaerotheca fuliginea; [6]
  pest or weed control at 2.5 g/ha: 80%

## CC(C)(C)C(O)C(Oc1ccc(-c2ccccc2)cc1)n1cncn1 (centres unmarked) [(IIc), 1-(4-phenyl-phenoxy)-3,3-dimethyl-1-(1,2,4-triazol-1-yl)-butan-2-ol]
Fusarium culmorum
  Efficacy in %: 27%
Rhizoctonia solani
  Efficacy in %: 0%
Sphaerotheca fuliginea; [6]
  pest or weed control at 2.5 g/ha: 0%

## CN(C)S(=O)(=O)N(SC(F)(Cl)Cl)c1ccccc1 [(IVa)]
Sphaerotheca fuliginea; Podosphaera fuliginea, 240 h, read-out: Efficacy in %
  pest or weed control at 25 g/ha: 0%

## Cc1ccc(N(SC(F)(Cl)Cl)S(=O)(=O)N(C)C)cc1 [(IVb)]
Sphaerotheca fuliginea; [7]
  pest or weed control at 25 g/ha: 0%

## CCCOC(=O)NC(C(=O)NC(C)c1ccc(C)cc1)C(C)C (centres unmarked) [(IX)]
Sphaerotheca fuliginea; [8]
  pest or weed control at 12.5 g/ha: 13%

## CC1(C(=O)Nc2ccc(O)c(Cl)c2Cl)CCCCC1 [(VIII)]
Sphaerotheca fuliginea; [8]
  pest or weed control at 12.5 g/ha: 0%

## CSC(=O)c1cccc2nnsc12 [(X)]
Sphaerotheca fuliginea; [6]
  pest or weed control at 2.5 g/ha: 0%

## CCCN(CC)CC1COC2(CCC(C(C)(C)C)CC2)O1 (centres unmarked) [(XI), 8-t-butyl-2-(N-ethyl-N-n-propyl-amino)-methyl-1,4-dioxaspiro-[5,4]-decane]
[2]; application rate 12.5 g/ha
  Efficacy in %: 0%
Sphaerotheca fuliginea; cucumber, protective, single active compound, application rate 12.5 g/ha, evaluation 10 days after inoculation
  Efficacy in %: 0%

## CO/C=C(/C(=O)OC)c1ccccc1Oc1cc(Oc2ccccc2C#N)ncn1 [(XII)]
[4]
  Efficacy in %: 92%
Sphaerotheca fuliginea; [6]
  pest or weed control at 2.5 g/ha: 59%

## CO/N=C(/C(=O)OC)c1ccccc1COc1ccccc1C [(XIII)]
[2]; application rate 6.25 g/ha
  Efficacy in %: 94%
Sphaerotheca fuliginea; [6]
  pest or weed control at 2.5 g/ha: 57%

## CO/N=C(\C1=NOCCO1)c1ccccc1Oc1ncnc(Oc2ccccc2Cl)c1F [(XIV)]
[1]
  Efficacy in %: 75%
Fusarium nivale; [5]
  Efficacy in %: 94%
[2]; application rate 12.5 g/ha
  Efficacy in %: 0%
Puccinia recondita
  Efficacy in %: 94%
Leptosphaeria nodorum
  Efficacy in %: 87%
Sphaerotheca fuliginea; [6]
  pest or weed control at 2.5 g/ha: 22%

## O=C1c2ccccc2C(=O)N1SC(Cl)(Cl)Cl [(XIX)]
Sphaerotheca fuliginea; [7]
  pest or weed control at 25 g/ha: 0%

## CC12CC1(C)C(=O)N(c1cc(Cl)cc(Cl)c1)C2=O (centres unmarked) [(XV)]
Sphaerotheca fuliginea; [8]
  pest or weed control at 12.5 g/ha: 0%

## N#Cc1c(Cl)c(Cl)c(Cl)c(C#N)c1Cl [(XVII)]
Sphaerotheca fuliginea; [7]
  pest or weed control at 25 g/ha: 0%

## COc1ccc(C(=CC(=O)N2CCOCC2)c2ccc(Cl)cc2)cc1OC [(XVIII)]
Sphaerotheca fuliginea; [8]
  pest or weed control at 12.5 g/ha: 0%

## Cc1cc(C)nc(Nc2ccccc2)n1 [(XVIa), pyrimethanil]
Sphaerotheca fuliginea; [7]
  pest or weed control at 25 g/ha: 0%

## Cc1cc(C2CC2)nc(Nc2ccccc2)n1 [(XVIb)]
[2]; application rate 12.5 g/ha
  Efficacy in %: 0%
Sphaerotheca fuliginea; [7]
  pest or weed control at 25 g/ha: 0%

## CCC(C)(NC(=O)c1cc(Cl)c(C)c(Cl)c1)C(=O)CCl (centres unmarked) [(XXIV)]
Sphaerotheca fuliginea; [8]
  pest or weed control at 12.5 g/ha: 0%

## N#Cc1c[nH]cc1-c1cccc(Cl)c1Cl [(XXIa), 4-(2,3-dichlorophenyl)-pyrrole-3-carbonitrile]
Fusarium nivale; application rate 25 g/ha
  Efficacy in %: 0%

## N#Cc1c[nH]cc1-c1cccc2c1OC(F)(F)O2 [(XXIb), 4-(2,2-difluoro-1,3-benzodioxol-7-yl)-1H-pyrrole-3-carbonitrile]
[2]; application rate 6.25 g/ha
  Efficacy in %: 38%

## zinc propylene-1,2-bis-(dithiocarbamate) [(VI)]
Sphaerotheca fuliginea; cucumber, protective, single active compound, application rate 25 g/ha, evaluation 10 days after inoculation
  Efficacy in %: 0%
